Tested on: anti-HCV antibodies (HCV-positive sera)
Experiment: ELISA detection of anti-HCV antibodies in HCV-positive sera with adsorbed peptides
Type: binding, human
Method: The reactivity of these three peptides towards the sera of individuals infected with the hepatitis C virus, termed (HCV) positive, was evaluated in an ELISA test according to the procedure described below.
Detection of anti-HCV Antibodies by ELISA
The wells of a microtiter plate of "NUNC MAXISORB™" trademark are saturated with 100 μl of a solution containing the peptide or a mixture of peptides (10 μg/ml) for 2 hours at 37° C. The plate is then emptied, then washed with a wash buffer containing 0.05% TWEEN™ 20(polysorbate 20). The wells are saturated with 100 μl of wash buffer supplemented with 10% goat serum (v/v), then incubated for 30 minutes at 37° C., then washed again as above. The sera to be analyzed are diluted to the appropriate dilution with saturation buffer. The incubation of the sera is 1 hour at 37° C. The wells are again washed. The solution of conjugate (goat IgG to human IgG labelled with peroxidase) at a dilution of 1/1000 in the saturation buffer is then added and the incubation lasts for 90 minutes at 37° C. After washing, the solution of orthophenylenediamine substrate is added. After 10 minutes, the reaction is stopped with 50 μl of H2 SO4 and the optical density is read at 492 nm. It should be noted that all the tests were carried out in duplicate.
For that, the different peptides are adsorbed on the microplates at a concentration of 10 μg/ml and the sera are used at 1/100 dilution.
The values obtained, which are collated in Table 1 below, correspond to the optical density (OD) multiplied by 10^3, at 492 nm.
For each serum the experiment was carried out in duplicate. The **** are values outside the upper scale.
The different peptides are absorbed onto microplates at a concentration of 10 μg/ml and the sera are used at the dilution stated.
The values obtained, which are collated in Table 2 below, correspond to the optical density at 492 nm. All the experiments were carried out in duplicate.
Each serum was, in a first instance, tested at the dilution 1/100.
The values given correspond to the optical density read at 492 nm multiplied by the factor 10^3.

Substance | optical density at 492 nm (Table 4, serum A 8, 1/1000) | optical density at 492 nm (Table 4, serum A 8, 1/10,000) | optical density at 492 nm (Table 4, serum A 9, 1/1000) | optical density at 492 nm (Table 4, serum A 9, 1/10,000) | optical density at 492 nm (Table 4, serum A 10, 1/1000) | optical density at 492 nm (Table 4, serum A 10, 1/10,000) | optical density at 492 nm (Table 4, serum A 11, 1/100) | optical density at 492 nm (Table 4, serum A 11, 1/1000) | optical density at 492 nm (Table 4, serum A 11, 1/10,000) | optical density at 492 nm (Table 4, serum A 12, 1/10,000) | optical density at 492 nm (Table 4, serum P 1, 1/100) | optical density at 492 nm (Table 4, serum P 2, 1/100) | optical density at 492 nm (Table 4, serum P 3, 1/100) | optical density at 492 nm (Table 4, serum P 4, 1/1000) | optical density at 492 nm (Table 4, serum P 4, 1/10,000) | optical density at 492 nm (Table 4, serum P 5, 1/10,000) | optical density at 492 nm (Table 4, serum P 7, 1/10,000) | optical density at 492 nm (Table 4, serum P 8, 1/10,000) | optical density at 492 nm (Table 4, serum P 10, 1/100) | optical density at 492 nm (Table 4, serum P 14, 1/10,000) | other results
P27Y: peptide corresponding to the amino acid sequence 7 to 35 of the CORE protein (PQRKTKRNTNRRPQDVKFPGGGQIVGGVY) | 1198 OD × 10^3 | 118 OD × 10^3 | 1388 OD × 10^3 | 182 OD × 10^3 | 334 OD × 10^3 | 31 OD × 10^3 | 1937 OD × 10^3 | 226 OD × 10^3 | 33 OD × 10^3 | 365 OD × 10^3 | 620 OD × 10^3 | 891 OD × 10^3 | 1470 OD × 10^3 | 2111 OD × 10^3 | 324 OD × 10^3 | 856 OD × 10^3 | 1667 OD × 10^3 | 654 OD × 10^3 | 60 OD × 10^3 | 566 OD × 10^3 | optical density at 492 nm (Table 4, serum A 10, 1/100): 2308 OD × 10^3; optical density at 492 nm (Table 4, serum P 16, 1/1000): 913 OD × 10^3; optical density at 492 nm (Table 4, serum P 16, 1/10,000): 104 OD × 10^3; optical density at 492 nm (Table 4, serum P 17, 1/100): 2300 OD × 10^3; optical density at 492 nm (Table 4, serum P 23, 1/100): 138 OD × 10^3; optical density at 492 nm (Table 4, serum P 24, 1/100): 1063 OD × 10^3; optical density at 492 nm (Table 4, serum P 29, 1/100): 347 OD × 10^3; optical density at 492 nm (Table 4, serum P 30, 1/100): 2274 OD × 10^3
P37G: peptide corresponding to the amino acid sequence 7 to 45 of the CORE protein (PQRKTKRNTNRRPQDVKFPGGGQIVGGVYLLPRRGPRLG) |  |  |  |  |  |  |  |  |  |  |  |  |  |  |  |  |  |  |  |  | optical density at 492 nm (Table 5, serum A8, 1/10,000): 525 OD × 10^3; optical density at 492 nm (Table 5, serum A 9, 1/1000): 2059 OD × 10^3; optical density at 492 nm (Table 5, serum A 9, 1/10,000): 275 OD × 10^3; optical density at 492 nm (Table 5, serum A10, 1/10,000): 1215 OD × 10^3; optical density at 492 nm (Table 5, serum A11, 1/10,000): 321 OD × 10^3; optical density at 492 nm (Table 5, serum A12, 1/10,000): 823 OD × 10^3; optical density at 492 nm (Table 5, serum A13, 1/10,000): 1061 OD × 10^3; optical density at 492 nm (Table 5, serum A14, 1/1000): 539 OD × 10^3; optical density at 492 nm (Table 5, serum A14, 1/10,000): 65 OD × 10^3; optical density at 492 nm (Table 5, serum A15, 1/10,000): 905 OD × 10^3; optical density at 492 nm (Table 5, serum A16, 1/10,000): 2003 OD × 10^3; optical density at 492 nm (Table 5, serum A19, 1/10,000): 446 OD × 10^3; optical density at 492 nm (Table 5, serum A20, 1/10,000): 2338 OD × 10^3; optical density at 492 nm (Table 5, serum A21, 1/1000): 652 OD × 10^3; optical density at 492 nm (Table 5, serum A21, 1/10,000): 90 OD × 10^3; optical density at 492 nm (Table 5, serum A22, 1/1000): 702 OD × 10^3; optical density at 492 nm (Table 5, serum A22, 1/10,000): 102 OD × 10^3; optical density at 492 nm (Table 5, serum A23, 1/10,000): 557 OD × 10^3; reactivity towards HCV-positive sera (in words): little or no difference is observed in reactivity
S32Y: peptide corresponding to the amino acid sequence 2 to 35 of the CORE protein (STNPKPQRKTKRNTNRRPQDVKFPGGGQIVGGVY) | 1372 OD × 10^3 | 173 OD × 10^3 | 1941 OD × 10^3 | 297 OD × 10^3 | 373 OD × 10^3 | 33 OD × 10^3 | 2240 OD × 10^3 | 228 OD × 10^3 | 36 OD × 10^3 | 588 OD × 10^3 | 703 OD × 10^3 | 1177 OD × 10^3 | 1576 OD × 10^3 | 2165 OD × 10^3 | 369 OD × 10^3 | 1242 OD × 10^3 | 1932 OD × 10^3 | 1068 OD × 10^3 | 78 OD × 10^3 | 601 OD × 10^3 | optical density at 492 nm (Table 4, serum P 16, 1/1000): 983 OD × 10^3; optical density at 492 nm (Table 4, serum P 16, 1/10,000): 124 OD × 10^3; optical density at 492 nm (Table 4, serum P 23, 1/100): 157 OD × 10^3; optical density at 492 nm (Table 4, serum P 24, 1/100): 1214 OD × 10^3; optical density at 492 nm (Table 4, serum P 29, 1/100): 400 OD × 10^3

From patent US6235284A, “Synthetic polypeptides belonging to the hepatitis C virus (HCV) and which can be used especially for detecting the latter” (Bio Merieux, priority 1992, dated 2001)
